Where no end group is shown, it is not given here.
Columns and labels:
Heart function = details: in vivo
peritoneal macrophages = assay: qPCR of inflammatory genes in cultured peritoneal macrophages; type: cell-based, mice; details: LPS 100 ng/ml, 4 hr; both WT and Chga-KO macrophages
Method: Peritoneal macrophages were isolated after thioglycollate (3% solution in water) stimulation as described. Isolated macrophages were cultured in DMEM with 10% FBS for 48 hours with daily medium changes. Cells were then serum-starved overnight in DMEM with low FBS (0.5%) and then exposed to saline, PST (100 nM), or LPS (100 ng/ml) for 4 hours. At the end of incubation, the cultures were subjected to RNA extraction.
RNA from tissues was extracted using a kit (RNeasy Plus, Qiagen, Valencia, Calif.). After DNase digestion, 200 ng of RNA was transcribed into cDNA in a 20-μl reaction using a High Capacity cDNA Archive kit and this cDNA was amplified. PCR (25-μl reactions) contained 5 μl of cDNA, 2×SYBR Green PCR Master Mix, and 400 nM of each primer. Differences in the threshold cycle number (ΔCt) between the target gene, the housekeeping gene Gapdh and the ribosomal protein gene 36B4 were used to calculate differences in expression. Primer sequences are provided below.
As shown in FIGS. 18A-18H, PST promotes macrophage inflammation and chemotaxis. Peritoneal macrophages were isolated from WT-NCD and KO-NCD after thioglycollate injection. After 4-hr exposure to saline, LPS (100 ng/ml) or PST (100 nM), RNAs were extracted and cDNAs were prepared for qPCR analyses of Chga (FIG. 18A, n=8), iNos (FIG. 18B, n=8), Tnfα (FIG. 18C, n=8), Mcp-1 (FIG. 18D, n=8), IL-6 (FIG. 18E, n=8), IL-12p40 (FIG. 18F, n=8) and iNos genes (FIG. 18G, n=8). (FIG. 18H) Effects of PST on chemotaxis of activated macrophages from NCD-fed C57BL/6J mice (n=5). “*” Denotes comparison between the indicated groups. “*”: P<0.05, “**”: p<0.01, “***”: p<0.001.

Substance	effects on heart function (Heart function)	expression of iNos (peritoneal macrophages) [fold]
KGEQEHSQQKEEEEEMAVVPQGLFRG-NH2 [PSTv1]	no adverse effects on heart function	
lipopolysaccharide [LPS]		~100
